Test results published in patent US20230339991A1, “HYPOXIA-ACTIVATED DNA ALKYLATING AGENT AND MEDICAL USE THEREOF” (ASCENTAWITS PHARMACEUTICALS, LTD., priority 2020, published 2023).
“And” between values parts separate entries of the source, which are not always exact repeats. Equal entries are not always repeated. Where two headings read alike, the source gives them in different places.

Tests used:
[1] = Blood-brain barrier experiment, brain and plasma concentrations after IV dosing; assay type: in vivo, CD-1 mice; conditions: for Kp: read-out: AUClnf Ratio (Brain/Plasma); for half-life: read-out: T½ (converted); for blood-brain barrier penetration: detected in brain tissue
Description: Three CD-1 […] were administered 1 mg/kg of the test compound intravenously at each time point. Blood and brain tissue were collected at 5 min, 15 min, 1 h, 2 h, 4 h and 8 h after administration.

Plasma stability, rat = assay: Plasma stability, rat
Description: The frozen plasma was immediately melted in a water bath of 37° C. The plasma was centrifuged at 3, 220 g for 10 minutes to remove the blood clots and the supernatant was collected into a new test tube. The pH of the plasma was checked and recorded. Note: a. Only plasma that has been melted no more than twice since arrival was used; b. Only plasma in the range of pH 7 to pH 8 was used.
1 mM of working solutions of the test compound and the control compound mevinolin were prepared in DMSO. 1 mM of the working solution of the control compound solution in […] was prepared in acetonitrile. 4 μL of the working solution was added to 796 μL of pre-incubated plasma to achieve 5 μM of final concentration. The final concentration of solvent was 0.5%.
[…] The assay is performed in duplicate. At the end of the two hour incubation, 300 μL of quenched solution at room temperature (acetonitrile containing internal standards (acetonitrile, 100 nM Alprazolam, 500 nM Labetalol and 2 μM ketoprofen)) was added to terminate the reaction. Samples at time 0 were prepared by adding 50 μL of standard addition plasma to the new test tubes with 300 μL of quenched solution at room temperature. The test tubes were mixed by vortex for 5 minutes. The samples in the plates were centrifuged at 3, 220×g for 30 minutes at 4° C. to precipitate the proteins. 100 μL of supernatant was transferred to a new plate. The supernatant was diluted with 100 μL of water, mixed well and analysed using LC-MS/MS.

[2] = CD-1, mouse, brain, iv, 1 mg/kg, IV 1 mg/kg, 0.083 h, single animals, read-out: Brain concentration
[3] = CD-1, mouse, brain, iv, 1 mg/kg, IV 1 mg/kg, 0.25 h, single animals, read-out: Brain concentration
[4] = CD-1, mouse, brain, iv, 1 mg/kg, IV 1 mg/kg, 1 h, single animals, read-out: Brain concentration
[5] = CD-1, mouse, brain/plasma, iv, 1 mg/kg, IV 1 mg/kg, 0.083 h, read-out: Mean Ratio (Brain/Plasma)
[6] = CD-1, mouse, brain/plasma, iv, 1 mg/kg, IV 1 mg/kg, 0.083 h, single animals, read-out: Ratio (Brain/Plasma)
[7] = CD-1, mouse, brain/plasma, iv, 1 mg/kg, IV 1 mg/kg, 0.25 h, single animals, read-out: Ratio (Brain/Plasma)
[8] = CD-1, mouse, brain/plasma, iv, 1 mg/kg, IV 1 mg/kg, 1 h, read-out: Mean Ratio (Brain/Plasma)
[9] = CD-1, mouse, brain/plasma, iv, 1 mg/kg, IV 1 mg/kg, 1 h, single animals, read-out: Ratio (Brain/Plasma)
[10] = CD-1, mouse, brain/plasma, iv, 1 mg/kg, IV 1 mg/kg, 2 h, read-out: Mean Ratio (Brain/Plasma)
[11] = CD-1, mouse, brain/plasma, iv, 1 mg/kg, IV 1 mg/kg
[12] = CD-1, mouse, plasma, iv, 1 mg/kg, IV 1 mg/kg, 0.083 h, single animals, read-out: Plasma concentration
[13] = CD-1, mouse, plasma, iv, 1 mg/kg, IV 1 mg/kg, 0.25 h, single animals, read-out: Plasma concentration
[14] = CD-1, mouse, brain tissue, IV 1 mg/kg
[15] = CD-1, mouse, plasma, IV 1 mg/kg
[16] = IV 1 mg/kg, 0.083 h, single animals, 1 mg/kg
[17] = IV 1 mg/kg, 0.25 h, single animals, 1 mg/kg
[18] = IV 1 mg/kg, 1 h, single animals, 1 mg/kg
[19] = IV 1 mg/kg, 2 h, single animals, 1 mg/kg
[20] = IV 1 mg/kg, 4 h, single animals
[21] = IV 1 mg/kg, 8 h, single animals
[22] = IV 1 mg/kg, 4 h, single animals, 1 mg/kg

## O=[N+]([O-])c1ccc([C@@H](OP(=O)(N2CC2)N2CC2)C(F)(F)F)c2ccccc12 (single isomer, unassigned) [Compound C]
[1]; [2]
  concentration at 0.083 h: 415 ng/g
[1]; [3]
  concentration at 0.25 h: 146 ng/g
[1]; [4]
  concentration at 1 h: 28.6 ng/g
[1]; [5]
  Kp at 0.083 h: 1.07
[1]; [6]
  Kp at 0.083 h: 0.99
[1]; [7]
  Kp at 0.25 h: 0.82
[1]; [8]
  Kp at 1 h: 0.54
[1]; [9]
  Kp at 1 h: 0.52
[1]; [10]
  Kp at 2 h: 1.11
[1]; [11]
  Kp: 0.73
[1]; [12]
  concentration at 0.083 h: 417 ng/mL
[1]; [13]
  concentration at 0.25 h: 179 ng/mL
[1]; [14]
  half-life: 21 min
[1]; [15]
  AUC(0-t): 188 ng·h/mL
  C0: 694 ng/mL
  half-life: 18 min
[1]; [16]
  Brain concentration: 541.99 ng/g and 377.29 ng/g
  Plasma concentration: 390.41 ng/mL and 456.85 ng/mL
  Ratio (Brain/Plasma): 1.39 and 0.83
[1]; [17]
  Brain concentration: 131.63 ng/g and 120.75 ng/g
  Plasma concentration: 132.02 ng/mL and 154.92 ng/mL
  Ratio (Brain/Plasma): 1.00 and 0.78
[1]; [18]
  Brain concentration: 18.01 ng/g and 15.01 ng/g
  Plasma concentration: 54.81 ng/mL and 25.61 ng/mL and 37.23 ng/mL
  Ratio (Brain/Plasma): 0.70 and 0.40
[1]; [19]
  Brain concentration: 8.31 ng/g and 1.90 ng/g and BLOQ
  Plasma concentration: 4.69 ng/mL and 2.16 ng/mL and 1.64 ng/mL
  Ratio (Brain/Plasma): 0.88
[1]; [20]
  Brain concentration: BLOQ
  Plasma concentration: BLOQ
[1]; [21]
  Brain concentration: BLOQ
  Plasma concentration: BLOQ
[1]; brain tissue, IV 1 mg/kg
  AUClast: 136.59 ng·h/g
  AUClnf: 138.68 ng·h/g
  MRTlnf_obs: 20.4 min
[1]
  blood-brain barrier penetration: can penetrate the blood-brain barrier
[1]; plasma, IV 1 mg/kg
  Cl_obs: 87.92 mL/min/kg
  MRTlnf_obs: 19.8 min
  Vss_obs: 1.73 L/kg

## O=[N+]([O-])c1ccc([C@H](OP(=O)(N2CC2)N2CC2)C(F)(F)F)c2ccccc12 [Compound B]
[1]; [2]
  concentration at 0.083 h: 992 ng/g
[1]; [3]
  concentration at 0.25 h: 499 ng/g
[1]; [4]
  concentration at 1 h: 88.1 ng/g
[1]; CD-1, mouse, brain, iv, 1 mg/kg, IV 1 mg/kg, 2 h, single animals, read-out: Brain concentration
  concentration at 2 h: 9 ng/g
[1]; CD-1, mouse, brain, iv, 1 mg/kg, IV 1 mg/kg, 4 h, single animals
  concentration at 4 h: 1.34 ng/g
[1]; [5]
  Kp at 0.083 h: 2.25
[1]; [6]
  Kp at 0.083 h: 2.18
[1]; [7]
  Kp at 0.25 h: 1.47
[1]; [8]
  Kp at 1 h: 1.39
[1]; [9]
  Kp at 1 h: 1.26
[1]; [10]
  Kp at 2 h: 1.34
[1]; CD-1, mouse, brain/plasma, iv, 1 mg/kg, IV 1 mg/kg, 4 h, single animals, read-out: Ratio (Brain/Plasma)
  Kp at 4 h: 1.19
[1]; [11]
  Kp: 1.49
[1]; [12]
  concentration at 0.083 h: 454 ng/mL
[1]; [13]
  concentration at 0.25 h: 341 ng/mL
[1]; CD-1, mouse, plasma, iv, 1 mg/kg, IV 1 mg/kg, 1 h, single animals, read-out: Plasma concentration
  concentration at 1 h: 70 ng/mL
[1]; CD-1, mouse, plasma, iv, 1 mg/kg, IV 1 mg/kg, 2 h, single animals, read-out: Plasma concentration
  concentration at 2 h: 8.54 ng/mL
[1]; [14]
  half-life: 19.8 min
[1]; [15]
  AUC(0-t): 289 ng·h/mL
  C0: 532 ng/mL
  half-life: 27 min
[1]; [16]
  Brain concentration: 1038.97 ng/g and 916.57 ng/g
  Plasma concentration: 485.00 ng/mL and 393.31 ng/mL
  Ratio (Brain/Plasma): 2.23 and 2.33
[1]; [17]
  Brain concentration: 480.24 ng/g and 420.87 ng/g
  Plasma concentration: 289.25 ng/mL and 256.49 ng/mL
  Ratio (Brain/Plasma): 1.66 and 1.64
[1]; [18]
  Brain concentration: 104.66 ng/g and 103.20 ng/g
  Plasma concentration: 87.46 ng/mL and 75.23 ng/mL
  Ratio (Brain/Plasma): 1.55 and 1.37
[1]; [19]
  Brain concentration: 13.14 ng/g and 15.08 ng/g
  Plasma concentration: 9.83 ng/mL and 11.45 ng/mL
  Ratio (Brain/Plasma): 1.32
[1]; [22]
  Brain concentration: BLOQ
  Plasma concentration: 1.13 ng/mL and 0.52 ng/mL and 0.28 ng/mL
[1]; [21]
  Brain concentration: BLOQ
  Plasma concentration: BLOQ
[1]; brain tissue, IV 1 mg/kg
  AUClast: 429.34 ng·h/g
  AUClnf: 435.32 ng·h/g
  MRTlnf_obs: 24.6 min
[1]
  blood-brain barrier penetration: can penetrate the blood-brain barrier
[1]; plasma, IV 1 mg/kg
  Cl_obs: 57.63 mL/min/kg
  MRTlnf_obs: 27.6 min
  Vss_obs: 1.59 L/kg

## CC(OP(=O)(N1CC1)N1CC1)c1ccc([N+](=O)[O-])c2ccccc12 (stereo not shown) [Compound D]
Plasma stability, rat; Rat plasma, after 30 minutes
  Remaining percentage: 85.49%
Plasma stability, rat; rat plasma
  plasma stability: relatively unstable
